PMC5617480 (Oncotarget, 2017)

How the values were obtained:
BEL-7404 cells = test: Apoptosis analysis (annexin V-FITC/PI flow cytometry); type: cell-based, human; conditions: BEL-7404, 10 μM, 24 h; untreated 6.1%
Method: Platinum(II)-based drugs were widely used in anticancer chemotherapies, therefore, we performed experiments to test the potency of chiral platinum(II) complexes 4–6 for inducing senescence and apoptosis in BEL-7404 cells. […] We next investigated the effect of complexes 4–6 on the induction of apoptosis. BEL-7404 cells were incubated with complexes 4 (10 and 20 μM), 5 (10 and 20 μM) and 6 (5, 10 and 20 μM) for 24 h, respectively, and then these cells staining with PI and Annexin-V-FITC were determined by flow cytometry (Figure 3A and Supplementary Figure 18). As shown in Figure 3A and Supplementary Figure 18, after treated of complexes 4–6 with 10 μM for 24 h, the percentage of apoptotic cells (including early-stage and late-stage, Q2+Q4) was 13.1%, 7.0% and 25.4%, respectively, whereas the normal cells was only 6.1%. We further investigated the ability of complexes 4–6 (5, 10 and 20 μM) to induce BEL-7404 cell cycle arrest (Figure 3B and Supplementary Figure 19). Cells were treated with complexes 4–6 at 10 μM for 48 h, the cell cycle arrest was determined by using flow cytometry. […]
Apoptosis analysis c-myc antibody, or anti-β-actin primary antibody and the Apoptosis was detected by flow cytometric analysis corresponding secondary antibody were used to detect of annexin V staining. […] Then, cells were incubated with annexin V-FITC and PI for 1.0 h at Staining for SA-β-Gal activity was carried out room temperature in the dark and immediately analyzed according to Moore and Chen reports. […] The data are presented as biparametric After the long-term incubation with complexes 4–6, the dot plots showing PI red fluorescence vs annexin V-FITC growth medium was aspirated and the BEL-7404 cells green fluorescence. were fixed in 2% formaldehyde/0.2% glutaraldehyde for 15.0 min at room temperature. […] Finally, the extraction, RT-PCR, and the selective binding to G4s by BEL-7404 cell cycle was determined with FACS Calibur complexes 4–6 was according to the our previous reported flow cytometer (BD) and analyzed using Cell Quest. […]

telomerase = molecular target: T1, telomerase (Homo sapiens, UniProt O14746); test: TRAP assay (TRAP-silver staining assay); type: biochemical; conditions: BEL-7404 cells, 10 μM, 24 h
T1 construct: Each telomerase extract was prepared from BEL-; endogenous in cells; host or cells: BEL-7404 cell extract
Description: As mentioned above, G4s structures widely exist in telomeres, we therefore monitored the effect of chiral platinum(II) complexes on function and activity of telomerase. To address this, we first determined the effect of complexes 4–6 on the expression of some telomeric DNA-associated proteins. […] We next evaluated the activity of telomerase by TRAP assay.
Apoptosis analysis c-myc antibody, or anti-β-actin primary antibody and the Apoptosis was detected by flow cytometric analysis corresponding secondary antibody were used to detect of annexin V staining. Annexin V-FITC vs PI assay was target protein via standard washing and incubating steps. performed as previously described. Briefly, adherent Senescence induction and selective binding to NEL-7404 cells were harvested and suspended in the G4s by 4–6 in BEL-7404 cells annexin-binding buffer (5×10^5 cells/mL). Then, cells were incubated with annexin V-FITC and PI for 1.0 h at Staining for SA-β-Gal activity was carried out room temperature in the dark and immediately analyzed according to Moore and Chen reports. In brief, by flow cytometry. The data are presented as biparametric After the long-term incubation with complexes 4–6, the dot plots showing PI red fluorescence vs annexin V-FITC growth medium was aspirated and the BEL-7404 cells green fluorescence. were fixed in 2% formaldehyde/0.2% glutaraldehyde for 15.0 min at room temperature. […] Finally, the extraction, RT-PCR, and the selective binding to G4s by BEL-7404 cell cycle was determined with FACS Calibur complexes 4–6 was according to the our previous reported flow cytometer (BD) and analyzed using Cell Quest.
(BDIS) and ModFit LT (Verity Software House, Topsham, ME). Gene expression by a panel of genes for RT-Determination of caspase-3/9 activity by flow qPCR array cytometric analysis Differential expression of telomeres/telomerase-related genes was analyzed using the Telomeres & […]

c-kit-2 = tested on: c-kit-2; parameters: method as in earlier work; conditions: ref [1], cited from earlier work; for ctDNADC50/c-kit-2DC50: FID selectivity ratio; for c-kit-2DC50: FID
[1] = tested on: HTG21 (DNA, G4) GGGTTAGGGTTAGGGTTAGGG; test: fluorescent intercalator displacement (FID); conditions: thiazole orange displaced

T1 sequence (O14746 whole entry): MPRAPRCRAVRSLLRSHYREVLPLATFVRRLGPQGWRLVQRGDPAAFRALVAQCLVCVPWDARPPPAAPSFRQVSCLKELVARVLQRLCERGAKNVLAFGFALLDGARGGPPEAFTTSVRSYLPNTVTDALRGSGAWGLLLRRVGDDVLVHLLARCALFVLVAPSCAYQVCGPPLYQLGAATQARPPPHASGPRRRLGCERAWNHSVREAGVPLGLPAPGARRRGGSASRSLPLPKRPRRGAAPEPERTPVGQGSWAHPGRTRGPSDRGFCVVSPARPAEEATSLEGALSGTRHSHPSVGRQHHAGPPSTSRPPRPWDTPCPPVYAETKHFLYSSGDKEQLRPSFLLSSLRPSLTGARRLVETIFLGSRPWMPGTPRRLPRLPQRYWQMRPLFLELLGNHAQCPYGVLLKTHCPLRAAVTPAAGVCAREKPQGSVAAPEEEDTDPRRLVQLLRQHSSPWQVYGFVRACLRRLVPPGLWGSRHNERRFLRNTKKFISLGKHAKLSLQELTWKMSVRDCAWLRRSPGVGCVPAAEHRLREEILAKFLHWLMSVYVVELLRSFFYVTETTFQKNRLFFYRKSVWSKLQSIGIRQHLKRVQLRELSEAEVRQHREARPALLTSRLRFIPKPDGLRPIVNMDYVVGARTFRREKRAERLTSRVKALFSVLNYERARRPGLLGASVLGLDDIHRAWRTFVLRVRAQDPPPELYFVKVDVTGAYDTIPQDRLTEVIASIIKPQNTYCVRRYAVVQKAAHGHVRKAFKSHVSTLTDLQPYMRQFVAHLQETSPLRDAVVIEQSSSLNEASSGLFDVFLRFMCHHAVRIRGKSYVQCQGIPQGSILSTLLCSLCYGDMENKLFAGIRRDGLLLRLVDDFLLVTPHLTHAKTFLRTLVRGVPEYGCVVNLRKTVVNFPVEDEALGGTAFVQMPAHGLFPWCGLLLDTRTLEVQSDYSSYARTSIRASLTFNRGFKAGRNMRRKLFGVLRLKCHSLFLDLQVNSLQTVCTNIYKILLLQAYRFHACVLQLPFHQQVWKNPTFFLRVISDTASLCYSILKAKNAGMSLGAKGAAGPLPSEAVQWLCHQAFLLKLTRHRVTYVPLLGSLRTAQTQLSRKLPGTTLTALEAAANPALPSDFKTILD
T1 sequence (O60832 whole entry partner): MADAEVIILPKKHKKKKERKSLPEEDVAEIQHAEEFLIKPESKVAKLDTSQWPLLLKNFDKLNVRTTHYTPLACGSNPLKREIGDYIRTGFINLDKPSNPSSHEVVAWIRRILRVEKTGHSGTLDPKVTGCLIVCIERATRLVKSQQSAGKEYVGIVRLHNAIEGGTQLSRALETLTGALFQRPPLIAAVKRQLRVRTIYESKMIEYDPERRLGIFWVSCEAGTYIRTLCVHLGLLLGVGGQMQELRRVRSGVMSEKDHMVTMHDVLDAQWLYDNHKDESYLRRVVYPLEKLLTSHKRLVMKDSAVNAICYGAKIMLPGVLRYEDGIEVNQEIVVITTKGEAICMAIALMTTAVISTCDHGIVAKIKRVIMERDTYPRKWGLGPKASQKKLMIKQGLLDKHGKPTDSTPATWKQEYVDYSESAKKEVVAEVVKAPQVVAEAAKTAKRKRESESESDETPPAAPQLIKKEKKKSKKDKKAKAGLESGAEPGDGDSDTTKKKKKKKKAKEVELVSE
T1 sequence (Q9NPE3 whole entry partner): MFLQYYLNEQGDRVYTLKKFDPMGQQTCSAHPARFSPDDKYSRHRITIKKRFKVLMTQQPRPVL
T1 sequence (Q9NX24 whole entry partner): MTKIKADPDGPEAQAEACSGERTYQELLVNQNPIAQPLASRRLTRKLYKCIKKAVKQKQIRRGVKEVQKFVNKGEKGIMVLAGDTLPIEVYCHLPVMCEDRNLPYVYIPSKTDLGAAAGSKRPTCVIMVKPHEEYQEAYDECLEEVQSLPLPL
T1 sequence (Q9NY12 whole entry partner): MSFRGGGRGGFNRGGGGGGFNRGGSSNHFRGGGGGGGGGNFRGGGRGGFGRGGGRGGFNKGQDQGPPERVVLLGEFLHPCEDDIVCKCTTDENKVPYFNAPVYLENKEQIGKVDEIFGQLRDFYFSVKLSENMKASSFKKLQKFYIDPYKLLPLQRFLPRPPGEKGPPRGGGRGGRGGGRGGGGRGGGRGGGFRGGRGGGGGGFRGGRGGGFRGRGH
T1 sequence (Q9BUR4 whole entry partner): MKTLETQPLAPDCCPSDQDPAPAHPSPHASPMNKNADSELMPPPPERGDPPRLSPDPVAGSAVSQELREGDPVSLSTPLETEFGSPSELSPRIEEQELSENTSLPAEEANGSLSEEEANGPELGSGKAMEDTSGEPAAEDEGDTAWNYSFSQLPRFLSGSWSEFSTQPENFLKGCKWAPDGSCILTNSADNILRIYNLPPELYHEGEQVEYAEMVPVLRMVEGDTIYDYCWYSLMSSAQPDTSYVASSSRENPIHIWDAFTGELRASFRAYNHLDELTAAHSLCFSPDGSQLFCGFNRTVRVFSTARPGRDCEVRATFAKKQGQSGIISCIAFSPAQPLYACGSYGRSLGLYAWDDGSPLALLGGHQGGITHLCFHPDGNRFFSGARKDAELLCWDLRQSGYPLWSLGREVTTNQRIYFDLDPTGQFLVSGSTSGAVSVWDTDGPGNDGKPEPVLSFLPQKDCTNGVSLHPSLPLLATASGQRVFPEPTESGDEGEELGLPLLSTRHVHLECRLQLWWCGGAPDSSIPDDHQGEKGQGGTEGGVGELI

cis-[PtCl2(R/S-(±)-FOA)] [complex 4]
percentage of apoptotic cells (early-stage and late-stage, Q2+Q4) (BEL-7404 cells): 13.1%
inhibitory ratio of telomerase activity (telomerase): 63.03%

cis-[PtCl2(S-(–)-FOA)] [complex 6]
percentage of apoptotic cells (early-stage and late-stage, Q2+Q4) (BEL-7404 cells): 25.4%
inhibitory ratio of telomerase activity (telomerase): 67.82%

O=C(NC[C@H](O)CO)c1cnc2c3c(cccc13)-c1ccccc1C2=O.[Cl-].[Cl-].[Pt+2] [ligand 3, S-(–)-FOA]
ctDNADC50/c-kit-2DC50 (c-kit-2): 3.92
c-kit-2DC50 (c-kit-2): 22.94 µM
G4DC50 [1]: 0.99 µM

O=C(NC[C@@H](O)CO)c1cnc2c3c(cccc13)-c1ccccc1C2=O.[Cl-].[Cl-].[Pt+2] [ligand 2, R-(+)-FOA]
ctDNADC50/c-kit-2DC50 (c-kit-2): < 0.40
c-kit-2DC50 (c-kit-2): > 100 µM
G4DC50 [1]: 1.26 µM

O=C(NCC(O)CO)c1cnc2c3c(cccc13)-c1ccccc1C2=O.[Cl-].[Cl-].[Pt+2] (racemic) [ligand 1, R/S-(±)-FOA]
ctDNADC50/c-kit-2DC50 (c-kit-2): < 0.64
c-kit-2DC50 (c-kit-2): > 100 µM
G4DC50 [1]: 1.23 µM

cis-[PtCl2(R-(+)-FOA)] [complex 5]
percentage of apoptotic cells (early-stage and late-stage, Q2+Q4) (BEL-7404 cells): 7.0%
inhibitory ratio of telomerase activity (telomerase): 23.35%
